Assays:
Assay in all cases: biochemical
Design in all cases: Eurofins recombinant human kinase profiling, remaining kinase activity as % of control, 10 uM ATP
Conditions in all cases: ATP 10 uM; read-out: %Ctrl@10 μM
STK32A(h) = STK32A(h) (Homo sapiens, UniProt Q8WU08)
Procedure, shortened: (§1)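 Activity measured in a commercial panel of 401 recombinant human protein kinases run as a kinase profiling service.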

SBK1(h) = SBK1(h) (Homo sapiens, UniProt Q52WX2)
Procedure, shortened: as §1

CK2(h) = target: T1, CK2(h) (Homo sapiens, UniProt P68400)
T1 construct: gene CSNK2A1
Procedure, shortened: as §1

EGFR(L861Q)(h) = EGFR(L861Q)(h) (Homo sapiens, UniProt P00533, L861Q)
Procedure, shortened: as §1

Hck(h) = Hck(h) (Homo sapiens, UniProt P08631)
Procedure, shortened: as §1

PKCμ(h) = target: T2, PKCμ(h) (Homo sapiens, UniProt Q15139)
T2 construct: gene PRKD1
Procedure, shortened: as §1

HPK1(h) = target: T3, HPK1(h) (Homo sapiens, UniProt Q92918)
T3 construct: gene MAP4K1
Procedure, shortened: as §1

PKAcβ(h) = target: T4, PKAcβ(h) (Homo sapiens, UniProt P22694)
T4 construct: gene PRKACB
Procedure, shortened: as §1

JNK3(h) = target: T5, JNK3(h) (Homo sapiens, UniProt P53779)
T5 construct: gene MAPK10
Procedure, shortened: as §1

CDK14/cyclinY(h) = CDK14/cyclinY(h) (Homo sapiens, UniProt O94921)
Procedure, shortened: as §1

PKCβII(h) = target: T6, PKCβII(h) (Homo sapiens, UniProt P05771)
T6 construct: gene PRKCB; isoform beta II
Procedure, shortened: as §1

MRCKβ(h) = target: T7, MRCKβ(h) (Homo sapiens, UniProt Q9Y5S2)
T7 construct: gene CDC42BPB
Procedure, shortened: as §1

TRB2(h) = target: T8, TRB2(h) (Homo sapiens, UniProt Q92519)
T8 construct: gene TRIB2
Procedure, shortened: as §1

MLK2(h) = target: T9, MLK2(h) (Homo sapiens, UniProt Q02779)
T9 construct: gene MAP3K10
Procedure, shortened: as §1

TAO1(h) = target: T10, TAO1(h) (Homo sapiens, UniProt Q7L7X3)
T10 construct: gene TAOK1
Procedure, shortened: as §1

ALK4(h) = target: T11, ALK4(h) (Homo sapiens, UniProt P36896)
T11 construct: gene ACVR1B
Procedure, shortened: as §1

ZIPK(h) = target: T12, ZIPK(h) (Homo sapiens, UniProt O43293)
T12 construct: gene DAPK3
Procedure, shortened: as §1

VRK1(h) = VRK1(h) (Homo sapiens, UniProt Q99986)
Procedure, shortened: as §1

STK16(h) = STK16(h) (Homo sapiens, UniProt O75716)
Procedure, shortened: as §1

FAK(h) = target: T13, FAK(h) (Homo sapiens, UniProt Q05397)
T13 construct: gene PTK2
Procedure, shortened: as §1

Abl(T315I)(h) = target: T14, Abl(T315I)(h) (Homo sapiens, UniProt P00519, T315I)
T14 construct: gene ABL1
Procedure, shortened: as §1

LIMK1(h) = LIMK1(h) (Homo sapiens, UniProt P53667)
Procedure, shortened: as §1

T5 sequence (P53779 whole entry): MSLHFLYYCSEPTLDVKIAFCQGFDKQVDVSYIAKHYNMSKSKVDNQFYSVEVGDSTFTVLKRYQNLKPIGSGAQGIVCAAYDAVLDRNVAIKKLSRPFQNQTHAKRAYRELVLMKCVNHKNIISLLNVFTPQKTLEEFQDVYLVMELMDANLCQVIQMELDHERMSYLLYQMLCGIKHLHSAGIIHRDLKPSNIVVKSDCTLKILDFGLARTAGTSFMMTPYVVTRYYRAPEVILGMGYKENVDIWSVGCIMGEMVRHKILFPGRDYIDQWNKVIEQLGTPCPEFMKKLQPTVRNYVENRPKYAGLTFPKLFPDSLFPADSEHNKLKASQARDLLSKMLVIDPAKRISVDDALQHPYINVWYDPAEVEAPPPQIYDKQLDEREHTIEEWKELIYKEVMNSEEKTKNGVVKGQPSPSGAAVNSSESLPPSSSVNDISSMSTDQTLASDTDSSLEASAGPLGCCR
T9 sequence (Q02779 whole entry): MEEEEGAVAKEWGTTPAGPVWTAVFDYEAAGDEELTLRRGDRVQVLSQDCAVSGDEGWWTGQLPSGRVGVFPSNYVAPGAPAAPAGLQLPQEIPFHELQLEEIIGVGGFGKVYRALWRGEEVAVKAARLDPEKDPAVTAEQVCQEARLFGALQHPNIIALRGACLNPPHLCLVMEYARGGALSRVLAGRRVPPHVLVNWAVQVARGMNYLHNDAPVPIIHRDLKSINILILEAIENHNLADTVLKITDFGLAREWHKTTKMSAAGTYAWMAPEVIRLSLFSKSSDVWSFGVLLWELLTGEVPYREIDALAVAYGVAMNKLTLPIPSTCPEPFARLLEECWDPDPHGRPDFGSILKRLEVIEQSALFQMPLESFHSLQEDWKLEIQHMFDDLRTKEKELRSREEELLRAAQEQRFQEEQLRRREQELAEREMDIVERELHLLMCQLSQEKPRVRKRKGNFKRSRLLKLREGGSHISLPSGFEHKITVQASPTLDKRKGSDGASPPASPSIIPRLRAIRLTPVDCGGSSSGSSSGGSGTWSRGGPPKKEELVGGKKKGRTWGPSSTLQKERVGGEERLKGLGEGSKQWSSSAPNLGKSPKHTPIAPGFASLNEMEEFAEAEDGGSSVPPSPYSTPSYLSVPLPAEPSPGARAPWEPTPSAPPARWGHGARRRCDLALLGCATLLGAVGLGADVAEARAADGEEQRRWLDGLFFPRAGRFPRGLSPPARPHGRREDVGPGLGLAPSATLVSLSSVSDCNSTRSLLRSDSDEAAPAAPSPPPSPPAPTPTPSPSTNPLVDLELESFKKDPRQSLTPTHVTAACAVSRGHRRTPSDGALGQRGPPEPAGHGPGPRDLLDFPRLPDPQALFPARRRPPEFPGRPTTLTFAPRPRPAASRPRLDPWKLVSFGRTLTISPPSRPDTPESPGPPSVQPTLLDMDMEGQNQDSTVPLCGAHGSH
Sequence of VRK1(h) (Q99986 whole entry): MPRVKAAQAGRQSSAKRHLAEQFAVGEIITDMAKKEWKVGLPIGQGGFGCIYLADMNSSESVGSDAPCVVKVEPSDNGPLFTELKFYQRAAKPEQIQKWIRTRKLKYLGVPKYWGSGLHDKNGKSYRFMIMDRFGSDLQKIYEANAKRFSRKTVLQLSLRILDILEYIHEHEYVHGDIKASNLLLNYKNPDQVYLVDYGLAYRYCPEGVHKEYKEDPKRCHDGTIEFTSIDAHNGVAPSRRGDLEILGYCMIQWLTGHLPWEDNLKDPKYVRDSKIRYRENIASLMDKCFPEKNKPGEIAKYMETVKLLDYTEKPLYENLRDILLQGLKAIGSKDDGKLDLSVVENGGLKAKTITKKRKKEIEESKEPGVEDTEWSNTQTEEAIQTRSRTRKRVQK
Sequence of LIMK1(h) (P53667 whole entry): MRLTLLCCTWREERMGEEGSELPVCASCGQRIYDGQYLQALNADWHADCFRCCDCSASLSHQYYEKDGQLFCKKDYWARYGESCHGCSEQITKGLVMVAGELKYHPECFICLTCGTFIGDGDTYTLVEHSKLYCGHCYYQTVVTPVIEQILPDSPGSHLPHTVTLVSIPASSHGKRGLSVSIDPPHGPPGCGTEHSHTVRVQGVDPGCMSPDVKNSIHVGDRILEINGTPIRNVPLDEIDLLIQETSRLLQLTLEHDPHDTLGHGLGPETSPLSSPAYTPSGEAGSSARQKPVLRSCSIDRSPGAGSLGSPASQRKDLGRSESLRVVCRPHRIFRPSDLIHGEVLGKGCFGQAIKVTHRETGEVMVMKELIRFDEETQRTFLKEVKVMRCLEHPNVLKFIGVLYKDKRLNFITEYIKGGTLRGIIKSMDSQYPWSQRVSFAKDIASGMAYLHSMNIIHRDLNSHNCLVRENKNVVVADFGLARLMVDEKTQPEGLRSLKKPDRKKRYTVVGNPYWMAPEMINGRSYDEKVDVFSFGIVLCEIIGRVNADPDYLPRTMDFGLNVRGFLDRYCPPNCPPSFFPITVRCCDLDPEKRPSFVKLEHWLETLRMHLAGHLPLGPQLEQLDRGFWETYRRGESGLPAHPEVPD
T11 sequence (P36896 whole entry): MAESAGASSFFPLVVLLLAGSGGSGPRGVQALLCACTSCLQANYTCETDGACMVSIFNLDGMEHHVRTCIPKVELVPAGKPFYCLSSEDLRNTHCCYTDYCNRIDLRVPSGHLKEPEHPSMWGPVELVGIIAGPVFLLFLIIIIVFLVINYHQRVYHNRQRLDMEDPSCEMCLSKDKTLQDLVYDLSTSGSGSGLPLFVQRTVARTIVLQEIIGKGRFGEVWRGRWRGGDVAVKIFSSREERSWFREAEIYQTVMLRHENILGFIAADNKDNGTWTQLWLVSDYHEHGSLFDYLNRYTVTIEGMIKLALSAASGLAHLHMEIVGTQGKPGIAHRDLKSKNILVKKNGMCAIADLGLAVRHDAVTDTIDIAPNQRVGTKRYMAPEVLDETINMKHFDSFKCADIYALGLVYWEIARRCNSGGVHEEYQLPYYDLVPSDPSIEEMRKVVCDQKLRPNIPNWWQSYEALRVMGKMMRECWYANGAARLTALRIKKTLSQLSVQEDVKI
T2 sequence (Q15139 whole entry): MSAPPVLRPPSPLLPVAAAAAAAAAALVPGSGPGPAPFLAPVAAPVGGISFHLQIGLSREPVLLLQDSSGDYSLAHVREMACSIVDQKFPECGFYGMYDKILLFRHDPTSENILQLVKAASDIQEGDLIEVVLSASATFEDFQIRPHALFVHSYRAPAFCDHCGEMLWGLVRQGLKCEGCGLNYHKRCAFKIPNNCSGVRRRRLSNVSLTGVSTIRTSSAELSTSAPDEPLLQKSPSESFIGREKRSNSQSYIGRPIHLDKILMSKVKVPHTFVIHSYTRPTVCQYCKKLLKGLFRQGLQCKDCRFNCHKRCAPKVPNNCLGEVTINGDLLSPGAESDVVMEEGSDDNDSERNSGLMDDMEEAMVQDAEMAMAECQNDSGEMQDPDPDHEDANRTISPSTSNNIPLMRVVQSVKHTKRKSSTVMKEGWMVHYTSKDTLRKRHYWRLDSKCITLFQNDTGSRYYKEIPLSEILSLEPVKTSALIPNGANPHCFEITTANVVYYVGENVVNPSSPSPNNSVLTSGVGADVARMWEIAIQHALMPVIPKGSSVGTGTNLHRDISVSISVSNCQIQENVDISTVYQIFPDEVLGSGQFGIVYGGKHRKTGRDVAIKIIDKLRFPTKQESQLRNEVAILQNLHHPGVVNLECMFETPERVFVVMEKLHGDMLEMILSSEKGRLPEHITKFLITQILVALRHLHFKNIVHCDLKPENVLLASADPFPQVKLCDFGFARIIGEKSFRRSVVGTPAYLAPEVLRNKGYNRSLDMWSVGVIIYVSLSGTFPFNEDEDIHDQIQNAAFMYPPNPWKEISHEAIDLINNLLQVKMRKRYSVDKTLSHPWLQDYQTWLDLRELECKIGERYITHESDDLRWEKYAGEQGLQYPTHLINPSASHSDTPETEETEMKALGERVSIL
T13 sequence (Q05397 whole entry): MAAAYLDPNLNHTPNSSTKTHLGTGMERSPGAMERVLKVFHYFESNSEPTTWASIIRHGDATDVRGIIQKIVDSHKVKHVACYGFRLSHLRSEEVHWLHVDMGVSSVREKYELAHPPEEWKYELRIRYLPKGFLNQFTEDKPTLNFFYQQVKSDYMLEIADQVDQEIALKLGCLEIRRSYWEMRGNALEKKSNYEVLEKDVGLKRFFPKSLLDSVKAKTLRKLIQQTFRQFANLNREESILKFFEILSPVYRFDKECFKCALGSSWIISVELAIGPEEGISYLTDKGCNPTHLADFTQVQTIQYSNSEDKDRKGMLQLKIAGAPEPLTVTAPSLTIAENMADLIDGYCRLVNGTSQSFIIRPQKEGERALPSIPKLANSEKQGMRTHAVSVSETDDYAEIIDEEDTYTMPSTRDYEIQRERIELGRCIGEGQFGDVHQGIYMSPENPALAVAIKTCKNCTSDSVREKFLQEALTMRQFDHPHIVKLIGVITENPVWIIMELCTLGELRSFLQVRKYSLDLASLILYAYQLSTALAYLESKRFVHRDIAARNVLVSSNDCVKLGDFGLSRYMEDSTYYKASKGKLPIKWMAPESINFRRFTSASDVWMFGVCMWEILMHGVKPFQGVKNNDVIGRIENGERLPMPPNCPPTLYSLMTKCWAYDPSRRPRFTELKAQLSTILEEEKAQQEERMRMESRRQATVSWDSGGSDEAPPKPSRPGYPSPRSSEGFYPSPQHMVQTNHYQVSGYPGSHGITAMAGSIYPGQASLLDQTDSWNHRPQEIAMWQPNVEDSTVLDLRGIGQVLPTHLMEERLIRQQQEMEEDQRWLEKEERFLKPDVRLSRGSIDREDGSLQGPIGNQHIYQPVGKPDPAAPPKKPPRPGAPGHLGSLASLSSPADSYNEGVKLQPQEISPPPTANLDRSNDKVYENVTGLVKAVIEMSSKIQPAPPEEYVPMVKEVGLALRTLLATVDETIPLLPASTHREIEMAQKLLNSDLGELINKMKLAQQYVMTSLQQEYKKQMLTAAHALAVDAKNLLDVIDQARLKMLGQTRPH

Compound `C1=C(c2nc(-c3cnn(C4CCNCC4)c3)cn3cc(-c4ccccc4)nc23)CCOC1` [YL-939] has a remaining activity at 10 µM (STK32A(h)) of 111%, a remaining activity at 10 µM (SBK1(h)) of 106% and a remaining activity at 10 µM (CK2(h)) of 97%. For the same compound, the remaining activity at 10 µM (EGFR(L861Q)(h)) was 61%, the remaining activity at 10 µM (Hck(h)) was 98% and the remaining activity at 10 µM (PKCμ(h)) was 77%. For the same compound, the remaining activity at 10 µM (HPK1(h)) was 88%, the remaining activity at 10 µM (PKAcβ(h)) was 94% and the remaining activity at 10 µM (JNK3(h)) was 65%. The remaining activity at 10 µM (CDK14/cyclinY(h)) was 111%, the remaining activity at 10 µM (PKCβII(h)) was 95% and the remaining activity at 10 µM (MRCKβ(h)) was 84%. It also gave a remaining activity at 10 µM (TRB2(h)) of 59%, a remaining activity at 10 µM (MLK2(h)) of 82% and a remaining activity at 10 µM (TAO1(h)) of 81%. The remaining activity at 10 µM (ALK4(h)) was 117%, the remaining activity at 10 µM (ZIPK(h)) was 88% and the remaining activity at 10 µM (VRK1(h)) was 87%. The remaining activity at 10 µM (STK16(h)) was 100%, the remaining activity at 10 µM (FAK(h)) was 112% and the remaining activity at 10 µM (Abl(T315I)(h)) was 119%. The remaining activity at 10 µM (LIMK1(h)) was 86%.

— paper PMC9719519, “Non-classical ferroptosis inhibition by a small molecule targeting PHB2” (Nature Communications, 2022)
